The values below come from publication PMC3523327 (Bioorganic & medicinal chemistry letters, 2012).

By IC50 is commonly meant the concentration that inhibits the measured activity by half.

Structures are written as SMILES.

Experiment [1] addresses HIV-1 integrase (IN), 3′-processing (Human immunodeficiency virus type 1 group M subtype B, UniProt P12497). Briefly: in vitro IN assay, 3′-processing reaction. Type of experiment: biochemical.
For experiment [2], the target named is HIV-1 integrase (IN), strand transfer (Human immunodeficiency virus type 1 group M subtype B, UniProt P12497). Briefly: in vitro IN assay, strand transfer reaction. Type of experiment: biochemical. Particulars: ST IC50 of 5d-2 versus 4d.
Experiment [3] deals with HIV-1 vector with N155H IN mutant. Conditions: cellular studies, HIV vectors bearing N155H mutant; ref [25]; cited from earlier work.

`CCCCc1cc2c(c(O)c1O)C(=O)N(Cc1ccc(F)c(Cl)c1)C2` [Compound 4c] displayed an IC50 in experiment [1] of more than 111 µM. The same measure, in the same setting: the result for `CN(C)S(=O)(=O)c1ccc(-c2cc3c(c(O)c2O)C(=O)N(Cc2ccc(F)c(Cl)c2)C3)cc1` [Compound 4h] reads more than 111 µM; that for `Cc1cc2c(c(O)c1O)C(=O)N(Cc1ccc(F)c(Cl)c1)C2` [Compound 4b], more than 111 µM. Still for that read-out and setting: the result for `CC(C)c1cc2c(c(O)c1O)C(=O)N(Cc1ccc(F)c(Cl)c1)C2` [Compound 4d] reads more than 111 µM; that for `CCCCc1c(O)c(O)c2c(c1S(=O)(=O)N(C)C)CN(Cc1ccc(F)c(Cl)c1)C2=O` [Compound 5c-2], more than 111 µM; that for `O=C1c2c(cc(-c3ccccc3)c(O)c2O)CN1Cc1ccc(F)c(Cl)c1` [Compound 4e], more than 111 µM. Turning to `CC(C)c1c(O)c(O)c2c(c1S(=O)(=O)N(C)C)CN(Cc1ccc(F)c(Cl)c1)C2=O` [Compound 5d-2], in experiment [2], the “enhancement in the ST reaction relative to parent 4d” value was 20 fold. Moreover, the IC50 in experiment [1] is more than 111 µM. `CC(C)c1c(O)c(O)c2c(c1S(=O)(=O)N1CCOCC1)CN(Cc1ccc(F)c(Cl)c1)C2=O` [Compound 5d-10] returned an IC50 in experiment [1] of more than 111 µM. With `Cc1nnc(C(=O)NC(C)(C)c2nc(C(=O)NCc3ccc(F)cc3)c(O)c(=O)n2C)o1` [raltegravir], the “loss of antiviral potency” value in experiment [3] is given as approximately 40 fold.
